Results as given in publication PMC10150623 (Journal of Enzyme Inhibition and Medicinal Chemistry, 2023).
Peptide text beside a SMILES is read from it.

How the values were obtained:
BoNT/A = settings: cited from earlier work
[1] = in vivo; cited from earlier work
leg muscle paralysis = system: leg muscle paralysis; set-up: species or system KM mice; settings: mouse, in vivo
BoNT/A LC (1–448 aa) = BoNT/A LC (1–448 aa) (Clostridium botulinum, UniProt P0DPI0); type: biochemical
[2] = biological target: Clostridium botulinum neurotoxin type A light chain (1-448 aa) (Clostridium botulinum) (UniProt P0DPI0); assay: enzyme inhibition kinetics (HPLC of substrate and products)
Clostridium botulinum neurotoxin type A light chain (1-448 aa) (Clostridium botulinum), sequence (P0DPI0 1-448): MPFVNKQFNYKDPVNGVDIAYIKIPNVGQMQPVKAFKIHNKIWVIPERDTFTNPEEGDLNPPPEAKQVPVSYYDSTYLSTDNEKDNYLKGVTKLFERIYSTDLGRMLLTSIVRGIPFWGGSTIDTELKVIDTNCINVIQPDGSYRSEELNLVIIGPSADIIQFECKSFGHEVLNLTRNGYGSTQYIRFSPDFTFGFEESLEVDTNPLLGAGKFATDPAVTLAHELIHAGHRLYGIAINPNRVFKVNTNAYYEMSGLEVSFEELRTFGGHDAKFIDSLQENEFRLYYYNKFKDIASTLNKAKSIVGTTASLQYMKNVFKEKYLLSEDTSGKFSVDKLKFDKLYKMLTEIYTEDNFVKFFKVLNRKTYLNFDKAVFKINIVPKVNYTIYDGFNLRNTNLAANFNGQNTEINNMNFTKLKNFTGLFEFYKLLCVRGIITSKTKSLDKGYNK

BoNT/A LC (1–448 aa), sequence (P0DPI0 1-448 limits assumed): as the sequence (P0DPI0 1-448) above

## N=C(N)NCCC[C@H](NC(=O)[C@@H](N)CCCNC(=N)N)C(=O)NCC(=O)N[C@@H](Cc1c[nH]c2ccccc12)C(=O)O [RRGW] (H-RRGW-OH)
Neuro-2A (N2A) cells
  cytotoxicity (cell viability): no cytotoxicity
SH-SY5Y cells
  cytotoxicity (cell viability): no cytotoxicity

## CRGC
BoNT/A
  cell-based activity, in words: higher activity than RRGC in cell-based experiments

## Clostridium botulinum neurotoxin type A [BoNT/A]
[1]
  nonserious cases following cosmetic use: 995 cases
  nonserious cases following therapeutic use: 189 cases
  serious cases following cosmetic use: 36 cases
  serious cases following therapeutic use: 217 cases
Leg muscle paralysis
  DAS (digit abduction score): 3–4

## RHGW
BoNT/A LC (1–448 aa)
  inhibitory effect on BoNT/A LC proteolytic activity (SNAP-25 cleavage), in words: RRGW showed a better inhibitory effect on BoNT/A proteolytic activity than RRGC, RRGL and RHGW

## RRGL
BoNT/A LC (1–448 aa)
  inhibitory effect on BoNT/A LC proteolytic activity (SNAP-25 cleavage), in words: RRGW showed a better inhibitory effect on BoNT/A proteolytic activity than RRGC, RRGL

## RRGW tetrapeptide
[2]
  Ki: 790 nM
